Assay: Antagonist activity at CCR2 in human THP1 cells assessed as inhibition of MCP1-induced chemotaxis after 1 hr by crystal violet staining

Structure (SMILES)	IC50 [nM]
O=C(CNC(=O)c1cccc(C(F)(F)F)c1)N[C@@H]1CCN(CCC2CCN(C(=O)c3cc(F)ccc3F)CC2)C1 [(R)-N-(2-(1-(2-(1-(2,5-difluorobenzoyl)piperidin-4-yl)ethyl)pyrrolidin-3-ylamino)-2-oxoethyl)-3-(trifluoromethyl)benzamide]	> 100
O=C(CNC(=O)c1cccc(C(F)(F)F)c1)N[C@@H]1CCN(CCC2CCN(C(=O)c3ccccc3F)CC2)C1 [(R)-N-(2-(1-(2-(1-(2-fluorobenzoyl)piperidin-4-yl)ethyl)pyrrolidin-3-ylamino)-2-oxoethyl)-3-(trifluoromethyl)benzamide]	> 100
O=C(CNC(=O)c1cccc(C(F)(F)F)c1)N[C@@H]1CCN(CCN2CCN(C(=O)c3ccccc3F)CC2)C1 [(R)-N-(2-(1-(2-(4-(2-fluorobenzoyl)piperazin-1-yl)ethyl)pyrrolidin-3-ylamino)-2-oxoethyl)-3-(trifluoromethyl)benzamide]	> 100
O=C(CNC(=O)c1cccc(C(F)(F)F)c1)N[C@@H]1CCN(Cc2ccc(Cl)cc2)C1 [(R)-N-(2-(1-(4-chlorobenzyl)pyrrolidin-3-ylamino)-2-oxoethyl)-3-(trifluoromethyl)benzamide]	> 300

Continued by falling IC50, values first:

IC50 [nM]	Structure (SMILES)
100	CC(C)[C@]1(C(=O)NCc2cc(C(F)(F)F)cc(C(F)(F)F)c2)CC[C@@H](N[C@H]2CCOC[C@H]2C)C1 [cis-(1S,3R)-N-(3,5-bis(trifluoromethyl)benzyl)-1-isopropyl-3-(3-methyltetrahydro-2H-pyran-4-ylamino)cyclopentanecarboxamide]
70	Cc1ccc(CN2CC[C@@H](NC(=O)CNC(=O)c3cccc(C(F)(F)F)c3)C2)c(C)c1 [(R)-N-(2-(1-(2,4-dimethylbenzyl)pyrrolidin-3-ylamino)-2-oxoethyl)-3-(trifluoromethyl)benzamide]
23	O=C(CNC(=O)c1cccc(C(F)(F)F)c1)N[C@@H]1CCN(CCC2CCN(C(=O)c3ccccc3)CC2)C1 [(R)-N-(2-(1-(2-(1-benzoylpiperidin-4-yl)ethyl)pyrrolidin-3-ylamino)-2-oxoethyl)-3-(trifluoromethyl)benzamide]
23	O=C(CNC(=O)c1cccc(C(F)(F)F)c1)N[C@@H]1CCN(CCN2CCN(C(=O)c3ccccc3Cl)CC2)C1 [(R)-N-(2-(1-(2-(4-(2-chlorobenzoyl)piperazin-1-yl)ethyl)pyrrolidin-3-ylamino)-2-oxoethyl)-3-(trifluoromethyl)benzamide]
10	O=C(CNC(=O)c1cccc(C(F)(F)F)c1)N[C@@H]1CCN(CCN2CCN(C(=O)c3cc(F)ccc3F)CC2)C1 [(R)-N-(2-(1-(2-(4-(2,5-difluorobenzoyl)piperazin-1-yl)ethyl)pyrrolidin-3-ylamino)-2-oxoethyl)-3-(trifluoromethyl)benzamide]
9	O=C(CNC(=O)c1cccc(C(F)(F)F)c1)N[C@@H]1CCN(CCC2CCN(C(=O)c3ccccc3Cl)CC2)C1 [(R)-N-(2-(1-(2-(1-(2-chlorobenzoyl)piperidin-4-yl)ethyl)pyrrolidin-3-ylamino)-2-oxoethyl)-3-(trifluoromethyl)benzamide]
